Source: the supplement of paper PMC4862054

Legend:
Details in all cases: incubation time: 72 h
[1] = system: HCC1599; assay: drug sensitivity score (DSS), CellTiter-Blue viability (DSS (AUC-based score)); higher = stronger viability inhibition; extreme values may be limits of the assay
Experimental: (§1)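 DSRT with the CellTiter-Blue (resazurin reduction) viability readout, fluorescence 560/590 nm, 72 h incubation. Plates were normalised to DMSO and benzethonium chloride controls. DSS is computed from the area under the fitted dose-response curve (5 or 9 concentrations).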

[2] = system: HDQ-P1; assay: as above
Experimental: as §1

[3] = system: HCC1937; assay: as above
Experimental: as §1

[4] = system: Hs578T; assay: as above
Experimental: as §1

[5] = system: DU-4475; assay: as above
Experimental: as §1

[6] = system: MFM-223; assay: as above
Experimental: as §1

[7] = system: MDA-MB-231; assay: as above
Experimental: as §1

[8] = system: CAL-120; assay: as above
Experimental: as §1

[9] = system: MDA-MB-453; assay: as above
Experimental: as §1

[10] = system: BT-549; assay: as above
Experimental: as §1

[11] = system: SK-BR-3; assay: as above
Experimental: as §1

[12] = system: HCC1143; assay: as above
Experimental: as §1

[13] = system: MDA-MB-436; assay: as above
Experimental: as §1

[14] = system: CAL-85-1; assay: as above
Experimental: as §1

[15] = system: CAL-51; assay: as above
Experimental: as §1

[16] = system: BT-474; assay: as above
Experimental: as §1

[17] = system: HCC1937; assay: drug sensitivity score (DSS), CellTiter-Glo (DSS (AUC-based score)); higher = stronger drug effect (viability inhibition or cytotoxicity); extreme values may be limits of the assay
How it was run: (§2)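 Breast cancer cell lines (20 µl suspension) were seeded into 384-well plates holding compound at 5 concentrations in 10-fold steps over a compound-specific 10,000-fold range, then incubated 72 h. CellTox Green fluorescence (485/520 nm) was read first, then CellTiter-Glo luminescence after 10 min at room temperature. Each plate was normalised to 0.1 % DMSO and a positive kill control. The drug sensitivity score was calculated from the area under the fitted dose-response curve.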

[18] = system: MDA-MB-468; assay: as above
How it was run: as §2

[19] = system: MFM-223; assay: as above
How it was run: as §2

[20] = system: MDA-MB-231; assay: as above
How it was run: as §2

[21] = system: CAL-120; assay: as above
How it was run: as §2

[22] = system: BT-549; assay: as above
How it was run: as §2

[23] = system: CAL-148; assay: as above
How it was run: as §2

[24] = system: HCC1143; assay: as above
How it was run: as §2

[25] = system: MDA-MB-436; assay: as above
How it was run: as §2

[26] = system: BT-474; assay: as above
How it was run: as §2

Structure (SMILES) | drug sensitivity score [1] | drug sensitivity score [2] | drug sensitivity score [3] | drug sensitivity score [4] | drug sensitivity score [5] | drug sensitivity score [6] | drug sensitivity score [7] | drug sensitivity score [8] | drug sensitivity score [9] | drug sensitivity score [10] | drug sensitivity score [11] | drug sensitivity score [12] | drug sensitivity score [13] | drug sensitivity score [14] | drug sensitivity score [15] | drug sensitivity score [16] | drug sensitivity score [17] | drug sensitivity score [18] | drug sensitivity score [19] | drug sensitivity score [20] | drug sensitivity score [21] | drug sensitivity score [22] | drug sensitivity score [23] | drug sensitivity score [24] | drug sensitivity score [25] | drug sensitivity score [26]
CC1=C(/C=C/C(C)=C/C=C/C(C)=C/C(=O)O)C(C)(C)CCC1 [Tretinoin] | 3.35 | 0 | 0 | 0 | 0 | 0 | 0 | 0 | 0 | 0 | 7.44 | 0 | 0 | 0 | 0 | 0 | 0 | 2.13 | 0 | 1.34 | 0 | 0 | 2.48 | 0 | 0 | 0
Oc1ncc(N(CCCl)CCCl)c(O)n1 [Uracil mustard] | 0 | 0 | 3.7 | 0 | 0 | 0 | 0 | 0 | 0 | 0 | 0 | 0 | 0 | 0 | 0 | 0 | 0 | 0 | 0 | 0 | 0 | 0 | 0 | 0 | 0 | 0
CCCCC(=O)OCC(=O)[C@]1(O)Cc2c(O)c3c(c(O)c2[C@@H](O[C@H]2C[C@H](NC(=O)C(F)(F)F)[C@H](O)[C@H](C)O2)C1)C(=O)c1c(OC)cccc1C3=O [Valrubicin] | 6.82 | 9.44 | 16 | 10.3 | 25 | 6.7 | 10.8 | 15.3 | 11 | 7.75 | 18.6 | 11.4 | 5.44 | 7.92 | 20.6 | 5.42 | 4.28 | 11.1 | 1.28 | 3.05 | 0 | 9.05 | 13.8 | 8.06 | 9.03 | 3.82
CCCS(=O)(=O)Nc1ccc(F)c(C(=O)c2c[nH]c3ncc(-c4ccc(Cl)cc4)cc23)c1F [Vemurafenib] | 0 | 1.56 | 0.544 | 1.04 | 17.3 | 0 | 0 | 0 | 0 | 0 | 0 | 0 | 0 | 2.25 | 0 | 0 | 0 | 0 | 0 | 0 | 0 | 0 | 0 | 0 | 0 | 0.633
